Assay results published in ChEMBL document CHEMBL2440076, “New triarylpyrazoles as broad-spectrum anticancer agents: design, synthesis, and biological evaluation” (Eur J Med Chem, 2013).

What was measured:
HCT-116 = assay: Growth inhibition of human HCT116 cells after 48 hrs by sulforhodamine B assay; assay type: functional; conditions: HCT-116, 48 h
SN12C = assay: Growth inhibition of human SN12C cells assessed as cell growth at 10 uM after 48 hrs by sulforhodamine B assay; assay type: functional; conditions: read-out: Activity
IGROV-1 = assay: Growth inhibition of human IGROV1 cells after 48 hrs by sulforhodamine B assay; assay type: functional; conditions: IGROV-1, 48 h
BT-549 = assay: Growth inhibition of human BT549 cells assessed as cell growth at 10 uM after 48 hrs by sulforhodamine B assay; assay type: functional; conditions: BT-549, 48 h, read-out: Activity
HT-29 = assay: Growth inhibition of human HT-29 cells after 48 hrs by sulforhodamine B assay; assay type: functional; conditions: HT-29, 48 h
MOLT-4 = assay: Growth inhibition of human MOLT4 cells after 48 hrs by sulforhodamine B assay; assay type: functional; conditions: MOLT-4, 48 h
UACC-62 = assay: Growth inhibition of human UACC62 cells assessed as cell growth at 10 uM after 48 hrs by sulforhodamine B assay; assay type: functional; conditions: UACC-62, 48 h, read-out: Activity
NCI-H460 = assay: Growth inhibition of human NCI-H460 cells assessed as cell growth at 10 uM after 48 hrs by sulforhodamine B assay; assay type: functional; conditions: NCI-H460, 48 h, read-out: Activity
LOX IMVI = assay: Growth inhibition of human LOXIMVI cells assessed as cell growth at 10 uM after 48 hrs by sulforhodamine B assay; assay type: functional; conditions: read-out: Activity
SK-MEL-5 = assay: Growth inhibition of human SK-MEL-5 cells assessed as cell growth at 10 uM after 48 hrs by sulforhodamine B assay; assay type: functional; conditions: SK-MEL-5, 48 h, read-out: Activity
NCI-H322M [1] = assay: Growth inhibition of human NCI-H322M cells assessed as cell growth at 10 uM after 48 hrs by sulforhodamine B assay; assay type: functional; conditions: read-out: Activity
SNB-19 [2] = assay: Growth inhibition of human SNB19 cells assessed as cell growth at 10 uM after 48 hrs by sulforhodamine B assay; assay type: functional; conditions: SNB-19, 48 h, read-out: Activity
786-0 = assay: Growth inhibition of human 786-0 cells assessed as cell growth at 10 uM after 48 hrs by sulforhodamine B assay; assay type: functional; conditions: 786-0, 48 h, read-out: Activity
SF-268 = assay: Growth inhibition of human SF268 cells assessed as cell growth at 10 uM after 48 hrs by sulforhodamine B assay; assay type: functional; conditions: SF-268, 48 h, read-out: Activity
SNB-19 [3] = assay: Growth inhibition of human SNB19 cells after 48 hrs by sulforhodamine B assay; assay type: functional; conditions: SNB-19, 48 h
NCI-H23 = assay: Growth inhibition of human NCI-H23 cells after 48 hrs by sulforhodamine B assay; assay type: functional; conditions: NCI-H23, 48 h
SF-539 = assay: Growth inhibition of human SF539 cells assessed as cell growth at 10 uM after 48 hrs by sulforhodamine B assay; assay type: functional; conditions: SF-539, 48 h, read-out: Activity
MDA-MB-231 = assay: Growth inhibition of human MDA-MB-231 cells after 48 hrs by sulforhodamine B assay; assay type: functional; conditions: MDA-MB-231, 48 h
[4] = Growth inhibition of human Hs 578T cells after 48 hrs by sulforhodamine B assay; assay type: functional
MDA-MB-435 = assay: Growth inhibition of human MDA-MB-435 cells assessed as cell growth at 10 uM after 48 hrs by sulforhodamine B assay; assay type: functional; conditions: MDA-MB-435, 48 h, read-out: Activity
U-251 = assay: Growth inhibition of human U251 cells after 48 hrs by sulforhodamine B assay; assay type: functional; conditions: U-251, 48 h
Malme-3M = assay: Growth inhibition of human MALME-3M cells after 48 hrs by sulforhodamine B assay; assay type: functional
OVCAR-5 = assay: Growth inhibition of human OVCAR5 cells after 48 hrs by sulforhodamine B assay; assay type: functional; conditions: OVCAR-5, 48 h
MDA-MB-468 = assay: Growth inhibition of human MDA-MB-468 cells after 48 hrs by sulforhodamine B assay; assay type: functional, cell-based; conditions: MDA-MB-468, 48 h
SF-295 = assay: Growth inhibition of human SF295 cells after 48 hrs by sulforhodamine B assay; assay type: functional, cell-based; conditions: SF-295, 48 h
TK-10 = assay: Growth inhibition of human TK10 cells assessed as cell growth at 10 uM after 48 hrs by sulforhodamine B assay; assay type: functional; conditions: TK-10, 48 h, read-out: Activity
A549 [5] = assay: Growth inhibition of human A549/ATCC cells assessed as cell growth at 10 uM after 48 hrs by sulforhodamine B assay; assay type: functional; conditions: A549, 48 h, read-out: Activity
HL-60(TB) = assay: Growth inhibition of human HL-60(TB) cells assessed as cell growth at 10 uM after 48 hrs by sulforhodamine B assay; assay type: functional; conditions: HL-60, 48 h, read-out: Activity
A549 [6] = assay: Growth inhibition of human A549/ATCC cells after 48 hrs by sulforhodamine B assay; assay type: functional; conditions: A549, 48 h
[7] = Growth inhibition of human Hs 578T cells assessed as cell growth at 10 uM after 48 hrs by sulforhodamine B assay; assay type: functional; conditions: read-out: Activity
PC-3 = assay: Growth inhibition of human PC3 cells after 48 hrs by sulforhodamine B assay; assay type: functional, cell-based; conditions: PC-3, 48 h
RXF 393 [8] = assay: Growth inhibition of human RXF393 cells after 48 hrs by sulforhodamine B assay; assay type: functional; conditions: RXF 393, 48 h
RXF 393 [9] = assay: Growth inhibition of human RXF393 cells assessed as cell growth at 10 uM after 48 hrs by sulforhodamine B assay; assay type: functional; conditions: RXF 393, 48 h, read-out: Activity
NCI-H322M [10] = assay: Growth inhibition of human NCI-H322M cells after 48 hrs by sulforhodamine B assay; assay type: functional
[11] = read-out: LC50 (the source's name)

O=C(Nc1cccc(-n2cc(-c3ccncc3)c(-c3ccc(Cl)c(O)c3)n2)c1)Nc1cccc(C(F)(F)F)c1
GI50 (HCT-116): 1.39 µM
TGI (HCT-116): 8.26 µM
CC50 (HCT-116; [11]): > 32.5 µM
growth at 10 µM (SN12C): 14.6%
GI50 (IGROV-1): 1.64 µM
LC50 (concentration killing 50% of cells) (IGROV-1): > 32.5 µM
TGI (IGROV-1): > 32.5 µM
growth at 10 µM (BT-549): 36%
GI50 (HT-29): 9.82 µM
TGI (HT-29): > 32.5 µM
CC50 (HT-29; [11]): > 32.5 µM
GI50 (MOLT-4): 1.92 µM
TGI (MOLT-4): > 32.5 µM
CC50 (MOLT-4; [11]): > 32.5 µM
growth at 10 µM (UACC-62): 10.4%
growth at 10 µM (NCI-H460): 7.29%
growth at 10 µM (LOX IMVI): 23.8%
growth at 10 µM (SK-MEL-5): -25.5%
growth at 10 µM (NCI-H322M [1]): 48.2%
growth at 10 µM (SNB-19 [2]): 32.5%
growth at 10 µM (786-0): 34.4%
growth at 10 µM (SF-268): 28.5%
GI50 (SNB-19 [3]): 1.91 µM
LC50 (concentration killing 50% of cells) (SNB-19 [3]): > 32.5 µM
TGI (SNB-19 [3]): > 32.5 µM
GI50 (NCI-H23): 1.9 µM
LC50 (NCI-H23): > 32.5 µM
TGI (NCI-H23): > 32.5 µM
growth at 10 µM (SF-539): 38.5%
GI50 (MDA-MB-231): 3.59 µM
LC50 (MDA-MB-231): > 32.5 µM
TGI (MDA-MB-231): 26.8 µM
GI50 [4]: 3.31 µM
TGI [4]: > 32.5 µM
CC50 [4, 11]: > 32.5 µM
growth at 10 µM (MDA-MB-435): 15.6%
GI50 (U-251): 1.59 µM
LC50 (concentration killing 50% of cells) (U-251): > 32.5 µM
TGI (U-251): 7.65 µM
GI50 (Malme-3M): 1.81 µM
LC50 (concentration killing 50% of starting cells) (Malme-3M): > 32.5 µM
TGI (Malme-3M): 20.1 µM
GI50 (OVCAR-5): 13.7 µM
LC50 (concentration killing 50% of cells) (OVCAR-5): > 32.5 µM
TGI (OVCAR-5): > 32.5 µM
GI50 (MDA-MB-468): 0.98 µM
IC50 (MDA-MB-468): 0.98 µM
TGI (MDA-MB-468): 7.83 µM
CC50 (MDA-MB-468; [11]): > 32.5 µM
GI50 (SF-295): 0.962 µM
IC50 (SF-295): 0.96 µM
TGI (SF-295): 4.26 µM
CC50 (SF-295; [11]): 29.2 µM
growth at 10 µM (TK-10): 21.9%
growth at 10 µM (A549 [5]): 5.74%
growth at 10 µM (HL-60(TB)): 12.5%
GI50 (A549 [6]): 1.37 µM
LC50 (concentration killing 50% of starting cells) (A549 [6]): > 32.5 µM
TGI (A549 [6]): > 32.5 µM
growth at 10 µM [7]: 29.4%
GI50 (PC-3): 0.948 µM
IC50 (PC-3): 0.95 µM
TGI (PC-3): 22.5 µM
CC50 (PC-3; [11]): > 32.5 µM
GI50 (RXF 393 [8]): 3.02 µM
LC50 (concentration killing 50% of cells) (RXF 393 [8]): > 32.5 µM
TGI (RXF 393 [8]): 12 µM
growth at 10 µM (RXF 393 [9]): 31.3%
GI50 (NCI-H322M [10]): 6.41 µM
TGI (NCI-H322M [10]): > 32.5 µM
CC50 (NCI-H322M [10]; [11]): > 32.5 µM
